Assay results: patent publication US20240208992A1, “MACROCYCLES AS CFTR MODULATORS” (Idorsia Pharmaceuticals Ltd, priority 2021, published 2024)

Biological target: human F508del-CFTR (Homo sapiens, UniProt P13569, DEL508-508)
Experiment: F508del-CFTR cell surface expression (corrector activity), DiscoveRx ß-galactosidase complementation chemiluminescence assay in recombinant U2OS cell line;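 also: U2OS cells co-expressing ProLink-tagged F508del-CFTR and a membrane-anchored enzyme acceptor, where more surface CFTR restores β-galactosidase activity measured by chemiluminescence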
Conditions: for EC50: EC50, F508del-CFTR cell surface expression
[1] = U2OS cell line, 16h compound incubation, geomean values
[2] = U2OS, in relation to the Emax of the corrector lumacaftor (=100%), U2OS cell line, 16h compound incubation, arithmetic mean values
[3] = U2OS cells, 16h compound incubation, geomean values
[4] = U2OS, in relation to Emax of corrector lumacaftor (=100%), arithmetic mean values
[5] = U2OS cells, 16h compound incubation, geomean of several measurements
[6] = U2OS, in relation to the Emax of the corrector lumacaftor (=100%), U2OS cells, 16h compound incubation, arithmetic mean

Chain of human F508del-CFTR (P13569 with tags, fused parts or gaps DEL508-508): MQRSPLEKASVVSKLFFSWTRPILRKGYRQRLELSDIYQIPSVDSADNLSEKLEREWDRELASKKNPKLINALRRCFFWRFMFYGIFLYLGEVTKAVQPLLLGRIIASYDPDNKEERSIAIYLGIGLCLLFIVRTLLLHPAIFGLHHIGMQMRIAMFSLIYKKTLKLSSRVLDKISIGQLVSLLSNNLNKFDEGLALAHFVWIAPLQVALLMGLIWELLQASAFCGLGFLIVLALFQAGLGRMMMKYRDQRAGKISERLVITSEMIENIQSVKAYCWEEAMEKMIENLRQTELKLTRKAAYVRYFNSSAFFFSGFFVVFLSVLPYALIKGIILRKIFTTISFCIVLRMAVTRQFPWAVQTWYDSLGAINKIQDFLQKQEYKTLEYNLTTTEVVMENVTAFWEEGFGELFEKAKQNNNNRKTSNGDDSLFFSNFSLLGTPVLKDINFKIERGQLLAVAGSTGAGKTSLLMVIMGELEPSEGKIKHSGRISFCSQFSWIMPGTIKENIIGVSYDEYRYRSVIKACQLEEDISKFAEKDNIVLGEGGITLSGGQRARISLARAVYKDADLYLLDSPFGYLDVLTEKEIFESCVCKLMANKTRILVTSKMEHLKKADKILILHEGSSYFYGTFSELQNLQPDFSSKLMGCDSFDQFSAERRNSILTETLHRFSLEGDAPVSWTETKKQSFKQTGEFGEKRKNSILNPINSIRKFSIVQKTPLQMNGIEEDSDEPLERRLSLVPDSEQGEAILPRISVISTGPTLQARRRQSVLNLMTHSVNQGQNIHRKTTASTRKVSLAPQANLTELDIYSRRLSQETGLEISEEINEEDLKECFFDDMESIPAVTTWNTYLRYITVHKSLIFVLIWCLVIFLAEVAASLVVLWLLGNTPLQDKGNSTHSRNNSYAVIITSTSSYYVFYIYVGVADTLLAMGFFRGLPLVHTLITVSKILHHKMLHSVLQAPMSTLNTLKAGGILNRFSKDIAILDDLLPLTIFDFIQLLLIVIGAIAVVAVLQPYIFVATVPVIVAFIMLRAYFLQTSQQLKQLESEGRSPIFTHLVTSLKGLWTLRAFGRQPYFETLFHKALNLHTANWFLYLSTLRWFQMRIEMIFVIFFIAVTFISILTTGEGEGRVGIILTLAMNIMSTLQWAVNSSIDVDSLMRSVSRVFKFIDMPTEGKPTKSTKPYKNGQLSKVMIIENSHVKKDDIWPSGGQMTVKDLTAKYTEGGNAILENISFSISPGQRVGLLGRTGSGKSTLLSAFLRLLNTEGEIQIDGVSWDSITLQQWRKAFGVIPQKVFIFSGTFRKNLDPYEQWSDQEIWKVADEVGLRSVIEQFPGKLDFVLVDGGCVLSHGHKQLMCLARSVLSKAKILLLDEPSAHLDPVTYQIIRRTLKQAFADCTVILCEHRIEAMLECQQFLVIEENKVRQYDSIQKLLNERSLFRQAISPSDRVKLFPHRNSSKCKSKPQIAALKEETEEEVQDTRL

Row | EC50 [1] [nM] | SMILES | EC50 [3] [nM] | Emax [4] [%] | further results
1 | 147 | CN1C(=O)C[C@@H](C(=O)NCCc2ccc3c(c2)OCO3)NC(=O)c2c(ccc3ccccc23)OC[C@@H](Cc2ccccc2)NC(=O)CN(CC[C@H]2CCCCO2)C(=O)[C@@H]1CC1CCCC1 (racemic) [Example 288, (3RS,7S,13R)-N-(2-(benzo[d][1,3]dioxol-5-yl)ethyl)-13-benzyl-7-(cyclopentylmethyl)-6-methyl-1,5,8,11-tetraoxo-9-(2-((SR)-tetrahydro-2H-pyran-2-yl)ethyl)-1,2,3,4,5,6,7,8,9,10,11,12,13,14-tetradecahydronaphtho[1,2-p][1]oxa[4,7,10,14]tetraazacycloheptadecine-3-carboxamide] | – | – | Emax [2]: 175%
2 | 132 | CC(C)C[C@H]1C(=O)N2CCCC[C@@H]2C(=O)N[C@H](Cc2ccccc2)COc2cnc3ccccc3c2C(=O)N[C@H](C(=O)NCCc2cc(C(C)(C)C)on2)CC(=O)N1C [Example 89, (9S,13S,19aR,22R)-22-benzyl-N-(2-(5-(tert-butyl)isoxazol-3-yl)ethyl)-13-isobutyl-12-methyl-7,11,14,20-tetraoxo-7,8,9,10,11,12,13,14,17,18,19,19a,20,21,22,23-hexadecahydro-16H-pyrido[2′,1′:6,7][1]oxa[4,7,10,14]tetraazacycloheptadecino[17,16-c]quinoline-9-carboxamide] | – | – | Emax (in relation to the Emax of the corrector lumacaftor (=100%), U2OS cell line, 16h compound incubation, arithmetic mean values): 262%
3 | 114 | CN1C(=O)C[C@@H](C(=O)NCCc2ccc3c(c2)OCO3)NC(=O)c2c(ccc3ccccc23)OC[C@@H](Cc2ccccc2)NC(=O)CN(CCC2CCCCC2)C(=O)[C@@H]1CC1CCC1 (mixture of isomers) [Example 292, (3RS,7S,13R)-N-(2-(benzo[d][1,3]dioxol-5-yl)ethyl)-13-benzyl-7-(cyclobutylmethyl)-9-(2-cyclohexylethyl)-6-methyl-1,5,8,11-tetraoxo-1,2,3,4,5,6,7,8,9,10,11,12,13,14-tetradecahydronaphtho[1,2-p][1]oxa[4,7,10,14]tetraazacycloheptadecine-3-carboxamide] | – | – | –
4 | – | CC(C)C[C@H]1C(=O)N(CC2COc3ccccc3C2)CC(=O)N[C@H](Cc2ccccc2)COc2ccc3ccccc3c2C(=O)N[C@H](C(=O)NCCc2ccc3c(c2)OCO3)CC(=O)N1C (stereo partly drawn) [Example 700, (3S,7S,13R)—N-(2-(Benzo[d][1,3]dioxol-5-yl)ethyl)-13-benzyl-9-(((S)-chroman-3-yl)methyl)-7-isobutyl-6-methyl-1,5,8,11-tetraoxo-1,2,3,4,5,6,7,8,9,10,11,12,13,14-tetradecahydronaphtho[1,2-p][1]oxa[4,7,10,14]tetraazacycloheptadecine-3-carboxamide] | 188 | 186 | –
5 | 887 | COc1cc2c(cc1OC)C(=O)N[C@H](C(=O)NCCc1ccc3c(c1)OCCN3C)CC(=O)N(C)[C@@H](CC(C)C)C(=O)N(C)CC(=O)N[C@H](Cc1ccccc1)CO2 [Example 8, (3R,9S,13S)-3-benzyl-9-isobutyl-17,18-dimethoxy-7,10-dimethyl-N-(2-(4-methyl-3,4-dihydro-2H-benzo[b][1,4]oxazin-7-yl)ethyl)-5,8,11,15-tetraoxo-2,3,4,5,6,7,8,9,10,11,12,13,14,15-tetradecahydrobenzo[p][1]oxa[4,7,10,14]tetraazacycloheptadecine-13-carboxamide] | – | – | Emax [2]: 210%
6 | – | CC(C)C[C@H]1C(=O)N2CCOC[C@@H]2C(=O)N[C@H](Cc2ccccc2)COc2cnc3c(F)cccc3c2C(=O)N[C@H](C(=O)NCCc2ccc3c(c2)OCCO3)CC(=O)N1C [Example 627, (9S,13S,19aR,22R)-22-benzyl-N-(2-(2,3-dihydrobenzo[b][1,4]dioxin-6-yl)ethyl)-3-fluoro-13-isobutyl-12-methyl-7,11,14,20-tetraoxo-7,8,9,10,11,12,13,14,16,17,19,19a,20,21,22,23-hexadecahydro-[1,4]oxazino[3′,4′:6,7][1]oxa[4,7,10,14]tetraazacycloheptadecino[17,16-c]quinoline-9-carboxamide] | 786 | 395 | –
7 | – | CC(C)C[C@H]1C(=O)N2CCCC[C@@H]2C(=O)N[C@H](Cc2ccccc2)COc2cnc3cccc(F)c3c2C(=O)N[C@H](C(=O)NCCc2noc(C3CC3)n2)CC(=O)N1C [Example 563, (9S,13S,19aR,22R)-22-benzyl-N-(2-(5-cyclopropyl-1,2,4-oxadiazol-3-yl)ethyl)-6-fluoro-13-isobutyl-12-methyl-7,11,14,20-tetraoxo-7,8,9,10,11,12,13,14,17,18,19,19a,20,21,22,23-hexadecahydro-16H-pyrido[2′,11:6,7][1]oxa[4,7,10,14]tetraazacycloheptadecino[17,16-c]quinoline-9-carboxamide] | 125 | 330 | –
8 | – | CC(C)C[C@H]1C(=O)N(C)[C@H](Cc2nc(-c3ccc(F)cn3)no2)C(=O)N[C@H](Cc2ccccc2)COc2ccc3ncc(F)cc3c2C(=O)N[C@H](C(=O)NCCc2noc(C3CC3)n2)CC(=O)N1C [Example 794, (3S,7S,10R,13R)-13-benzyl-N-(2-(5-cyclopropyl-1,2,4-oxadiazol-3-yl)ethyl)-20-fluoro-10-((3-(5-fluoropyridin-2-yl)-1,2,4-oxadiazol-5-yl)methyl)-7-isobutyl-6,9-dimethyl-1,5,8,11-tetraoxo-1,2,3,4,5,6,7,8,9,10,11,12,13,14-tetradecahydro-[1]oxa[4,7,10,14]tetraazacycloheptadecino[16,17-f]quinoline-3-carboxamide] | 83 | 354 | –
9 | – | COc1cccc(CCNC(=O)[C@@H]2CC(=O)N(C)[C@@H](CC(C)C)C(=O)N3CCN([S@](=O)(=NC(=O)OC(C)(C)C)c4ccccc4)C[C@@H]3C(=O)N[C@H](Cc3ccccc3)COc3ccc4ccccc4c3C(=O)N2)c1 [Example 757, tert-Butyl (((4aR,7R,18S,22S)-7-benzyl-22-isobutyl-18-((3-methoxyphenethyl)carbamoyl)-21-methyl-5,16,20,23-tetraoxo-1,2,4,4a,5,6,7,8,16,17,18,19,20,21,22,23-hexadecahydro-3H-naphtho[1,2-p]pyrazino[2,1-f][1]oxa[4,7,10,14]tetraazacycloheptadecin-3-yl)(oxo)(phenyl)-16-sulfaneylidene)carbamate] | 145 | 280 | –
10 | – | Cc1cc2c3c(ccc2cn1)OC[C@@H](Cc1ccccc1)NC(=O)[C@H]1CCCCN1C(=O)[C@H](CC(C)C)N(C)C(=O)C[C@@H](C(=O)NCCn1nnc(C2CC2)n1)NC3=O [Example 823, (9S,13S,19aR,22R)-22-benzyl-N-(2-(5-cyclopropyl-2H-tetrazol-2-yl)ethyl)-13-isobutyl-5,12-dimethyl-7,11,14,20-tetraoxo-7,8,9,10,11,12,13,14,17,18,19,19a,20,21,22,23-hexadecahydro-16H-pyrido[2′,1′:6,7][1]oxa[4,7,10,14]tetraazacycloheptadecino[16,17-f]isoquinoline-9-carboxamide] | – | – | EC50 [5]: 241 nM; Emax [6]: 366%
11 | – | COc1cc2c(cc1OC)C(=O)N[C@H](C(=O)NCCc1ccc3c(c1)CCO3)CC(=O)N(C)[C@@H](CC(C)C)C(=O)N(C)CC(=O)N[C@H](Cc1ccccc1)CO2 (racemic) [Example 152, (3R,9S,13RS)-3-benzyl-N-(2-(2,3-dihydrobenzofuran-5-yl)ethyl)-9-isobutyl-17,18-dimethoxy-7,10-dimethyl-5,8,11,15-tetraoxo-2,3,4,5,6,7,8,9,10,11,12,13,14,15-tetradecahydrobenzo[p][1]oxa[4,7,10,14]tetraazacycloheptadecine-13-carboxamide] | – | – | Emax [2]: 133%
12 | – | CCOCC[C@@H]1C(=O)N[C@H](Cc2ccccc2)COc2cc(C)nc(OC)c2C(=O)N[C@H](C(=O)NCCc2cc(OC)no2)CC(=O)N(C)[C@@H](CC(C)C)C(=O)N1C [Example 877, (3R,6R,9S,13S)-3-benzyl-6-(2-ethoxyethyl)-9-isobutyl-16-methoxy-N-(2-(3-methoxyisoxazol-5-yl)ethyl)-7,10,18-trimethyl-5,8,11,15-tetraoxo-2,3,4,5,6,7,8,9,10,11,12,13,14,15-tetradecahydropyrido[3,4-p][1]oxa[4,7,10,14]tetraazacycloheptadecine-13-carboxamide] | – | – | EC50 [5]: 186 nM; Emax [6]: 361%
13 | – | CC(C)C[C@H]1C(=O)N2CCCC[C@@H]2C(=O)N[C@H](Cc2ccccc2)COc2cnc3ccc(F)cc3c2C(=O)N[C@H](C(=O)NCCc2cc(C3CC3)no2)CC(=O)N1C [Example 640, (9S,13S,19aR,22R)-22-benzyl-N-(2-(3-cyclopropylisoxazol-5-yl)ethyl)-5-fluoro-13-isobutyl-12-methyl-7,11,14,20-tetraoxo-7,8,9,10,11,12,13,14,17,18,19,19a,20,21,22,23-hexadecahydro-16H-pyrido[2′,11:6,7][1]oxa[4,7,10,14]tetraazacycloheptadecino[17,16-c]quinoline-9-carboxamide] | 132 | 339 | –

Row | SMILES | EC50 [1] [nM] | EC50 [3] [nM] | Emax [4] [%] | further results
14 | COc1nccc2c1C(=O)N[C@H](C(=O)NCCc1ccc(Br)cc1)CC(=O)N(C)[C@@H](CC(C)C)C(=O)N1CCCC[C@@H]1C(=O)N[C@H](Cc1ccccc1)CO2 [Example 184, (7S,11S,17aR,20R)-20-benzyl-N-(4-bromophenethyl)-11-isobutyl-4-methoxy-10-methyl-5,9,12,18-tetraoxo-5,6,7,8,9,10,11,12,15,16,17,17a,18,19,20,21-hexadecahydro-14H-dipyrido[2,1-f:3′,4′-p][1]oxa[4,7,10,14]tetraazacycloheptadecine-7-carboxamide] | 410 | – | – | Emax [2]: 205%
